Tested on: panel of nearly 500 cancer cell lines
Test: Cancer Cell Line Encyclopedia profiling, 3-day CellTiter-Glo
Assay type: cell-based
Parameters: Amax: unit not given here

CN(C)C(=O)c1cc2cnc(Nc3ccc(N4CCNCC4)cn3)nc2n1C1CCCC1 [Ribociclib, 7-cyclopentyl-2-(5-piperazin-1-yl-pyridin-2-ylamino)-7H-pyrrolo[2,3-d]pyrimidine-6-carboxylic acid dimethylamide]
EC50 (Homo sapiens, TCC-SUP): > 8 µM
IC50 (Homo sapiens, TCC-SUP): > 8 µM
EC50 (Homo sapiens, TE-11): 2.09 µM
IC50 (Homo sapiens, TE-11): > 8 µM
EC50 (Homo sapiens, TE-15): 1.23 µM
IC50 (Homo sapiens, TE-15): > 8 µM
EC50 (Homo sapiens, TOV21G): 1.23 µM
IC50 (Homo sapiens, TOV21G): > 8 µM
EC50 (Homo sapiens, TOV112D): 0.995 µM
IC50 (Homo sapiens, TOV112D): > 8 µM
EC50 (Homo sapiens, Toledo): 1.52 µM
IC50 (Homo sapiens, Toledo): > 8 µM
EC50 (Homo sapiens, U2OS): 2.09 µM
IC50 (Homo sapiens, U2OS): > 8 µM
EC50 (Homo sapiens, U-87 MG): > 8 µM
IC50 (Homo sapiens, U-87 MG): > 8 µM
EC50 (Homo sapiens, U-118-MG): 2.68 µM
IC50 (Homo sapiens, U-118-MG): > 8 µM
EC50 (Homo sapiens, U-937): 1.74 µM
IC50 (Homo sapiens, U-937): 3.52 µM
EC50 (Homo sapiens, UACC-62): 1.62 µM
IC50 (Homo sapiens, UACC-62): > 8 µM
EC50 (Homo sapiens, UACC-257): 0.577 µM
IC50 (Homo sapiens, UACC-257): > 8 µM
EC50 (Homo sapiens, UACC-812): > 8 µM
IC50 (Homo sapiens, UACC-812): > 8 µM
EC50 (Homo sapiens, UMUC3): > 8 µM
IC50 (Homo sapiens, UMUC3): > 8 µM
EC50 (Homo sapiens, WM 266-4): 0.946 µM
IC50 (Homo sapiens, WM 266-4): > 8 µM
EC50 (Homo sapiens, WM793): > 8 µM
IC50 (Homo sapiens, WM793): > 8 µM
EC50 (Homo sapiens, WM-115): > 8 µM
IC50 (Homo sapiens, WM-115): > 8 µM
EC50 (Homo sapiens, YKG-1): > 8 µM
IC50 (Homo sapiens, YKG-1): > 8 µM
EC50 (Homo sapiens, ZR-75-1): > 8 µM
IC50 (Homo sapiens, ZR-75-1): > 8 µM
EC50 (Homo sapiens, ZR-75-30): > 8 µM
IC50 (Homo sapiens, ZR-75-30): > 8 µM
EC50 (Hs766T): > 8 µM
IC50 (Hs766T): > 8 µM
EC50 (IGR-39): > 8 µM
IC50 (IGR-39): > 8 µM
EC50 (JHH7): 1.83 µM
IC50 (JHH7): > 8 µM
EC50 (JHH-2): 7.93 µM
IC50 (JHH-2): > 8 µM
EC50 (JHH-4): 2.24 µM
IC50 (JHH-4): > 8 µM
EC50 (JMSU-1): > 8 µM
IC50 (JMSU-1): > 8 µM
EC50 (KE-97): 3.81 µM
IC50 (KE-97): 4.53 µM
EC50 (KHM-1B): 0.34 µM
IC50 (KHM-1B): > 8 µM
IC50 (KMM-1): 4.23 µM
EC50 (KMRC-1): 0.907 µM
IC50 (KMRC-1): > 8 µM
EC50 (KMS-26): 3.37 µM
IC50 (KMS-26): 2.53 µM
EC50 (Karpas-620): 0.0773 µM
IC50 (Karpas-620): > 8 µM
EC50 (Kelly): 6.64 µM
IC50 (Kelly): 6.64 µM
EC50 (LOU-NH91): > 8 µM
IC50 (LOU-NH91): > 8 µM
EC50 (LUDLU-1): 0.0154 µM
IC50 (LUDLU-1): > 8 µM
EC50 (Mono-Mac-1): 0.704 µM
IC50 (Mono-Mac-1): 3.22 µM
EC50 (NCI-H322): > 8 µM
IC50 (NCI-H322): > 8 µM
EC50 (NCI-H1339): > 8 µM
IC50 (NCI-H1339): > 8 µM
EC50 (NCI-H1568): > 8 µM
IC50 (NCI-H1568): > 8 µM
EC50 (NCI-H1915): > 8 µM
IC50 (NCI-H1915): > 8 µM
EC50 (NCI-H2023): 0.0698 µM
IC50 (NCI-H2023): > 8 µM
EC50 (NCI-H2172): > 8 µM
IC50 (NCI-H2172): > 8 µM
EC50 (OCUM1): > 8 µM
IC50 (OCUM1): > 8 µM
EC50 (OE21): > 8 µM
IC50 (OE21): 4.52 µM
EC50 (ONCO-DG-1): > 8 µM
IC50 (ONCO-DG-1): > 8 µM
EC50 (PK-59): > 8 µM
IC50 (PK-59): > 8 µM
EC50 (PL45): 0.0975 µM
IC50 (PL45): > 8 µM
EC50 (PaTu 8902): > 8 µM
IC50 (PaTu 8902): > 8 µM
EC50 (QGP-1): 0.309 µM
IC50 (QGP-1): 2.33 µM
EC50 (SH-10-TC): > 8 µM
IC50 (SH-10-TC): > 8 µM
EC50 (SUIT-2): 1.62 µM
IC50 (SUIT-2): 7.97 µM
EC50 (SW579): 0.929 µM
IC50 (SW579): > 8 µM
EC50 (SW1271): 2.54 µM
IC50 (SW1271): > 8 µM
EC50 (TC-71): > 8 µM
IC50 (TC-71): > 8 µM
EC50 (WM983B): 0.114 µM
IC50 (WM983B): 0.327 µM
EC50 (WM-1799): 0.202 µM
IC50 (WM-1799): > 8 µM
Amax (a172 (central_nervous_system)): -18.6367
Amax (a204 (soft_tissue)): -24.3309
Amax (a253 (salivary_gland)): 9.763
Amax (a2058 (skin)): 0.435
Amax (g402 (soft_tissue)): -59.1579
Amax (gamg (central_nervous_system)): -4.349
Amax (gb1 (central_nervous_system)): -5.547
Amax (gciy (stomach)): -6.8217
Amax (gct (soft_tissue)): -35.032
Amax (gi1 (central_nervous_system)): 1.537
Amax (glc82 (lung)): 6.841
Amax (gms10 (central_nervous_system)): 6.4331
Amax (granta519 (haematopoietic_and_lymphoid_tissue)): -7.882
Amax (h4 (central_nervous_system)): -7.315
Amax (hara (lung)): -39.5316
Amax (hcc15 (lung)): 11.5352
Amax (hcc44 (lung)): -21.2383
Amax (hcc56 (large_intestine)): -7.243
Amax (hcc70 (breast)): 9.331
Amax (hcc78 (lung)): 8.5798
Amax (hcc827 (lung)): 5.053
Amax (hcc1187 (breast)): -1.8256
Amax (hcc1395 (breast)): 4.555
Amax (hcc1569 (breast)): -4.171
Amax (hcc1806 (breast)): -2.407
Amax (hcc1954 (breast)): 5.4786
Amax (hcc2935 (lung)): 3.035
Amax (hcc4006 (lung)): -45.676
Amax (hct15 (large_intestine)): -18.4329
Amax (hct116 (large_intestine)): -41.8056
Amax (hdmyz (haematopoietic_and_lymphoid_tissue)): -70.2074
Amax (hdqp1 (breast)): -11.6831
Amax (hec1a (endometrium)): -0.2935
Amax (hec1b (endometrium)): -44.265
Amax (hec6 (endometrium)): 9.745
Amax (hec59 (endometrium)): -17.0499
Amax (hec151 (endometrium)): 0.04545
Amax (hec251 (endometrium)): 3.202
Amax (hec265 (endometrium)): 6.223
Amax (hel9217 (haematopoietic_and_lymphoid_tissue)): 0.4869
Amax (hep3b217 (liver)): 2.738
Amax (hepg2 (liver)): -37.2895
Amax (heya8 (ovary)): -44.7632
Amax (hgc27 (stomach)): -65.8757
Amax (hh (haematopoietic_and_lymphoid_tissue)): -3.613
Amax (hle (liver)): -18.5726
Amax (hlf (liver)): 6.292
Amax (hmc18 (breast)): -31.7315
Amax (hmcb (skin)): -41.1129
Amax (hos (bone)): -0.8851
Amax (hpac (pancreas)): -55.1912
Amax (hpafii (pancreas)): -3.9084
Amax (hs229t (lung)): -28.1577
Amax (hs294t (skin)): -32.1941
Amax (hs578t (breast)): -21.2687
Amax (hs695t (skin)): -3.506
Amax (hs729 (soft_tissue)): 10.8537
Amax (hs739t (breast)): -26.62
Amax (hs746t (stomach)): -37.6649
Amax (hs766t (pancreas)): -32.0513
Amax (hs840t (upper_aerodigestive_tract)): -29.2379
Amax (hs852t (skin)): -6.059
Amax (hs936t (skin)): -38.0651
Amax (hs939t (skin)): -14.4612
Amax (hsc2 (upper_aerodigestive_tract)): 0.4805
Amax (ht29 (large_intestine)): -56.1634
Amax (ht144 (skin)): -18.5925
Amax (ht1080 (soft_tissue)): -36.8044
Amax (ht1197 (urinary_tract)): -10.59
Amax (ht1376 (urinary_tract)): 7.547
Amax (ht (haematopoietic_and_lymphoid_tissue)): 8.223
Amax (hucct1 (biliary_tract)): 1.7282
Amax (huh1 (liver)): -43.6531
Amax (hupt3 (pancreas)): -32.6303
Amax (hupt4 (pancreas)): -52.4819
Amax (hut78 (haematopoietic_and_lymphoid_tissue)): 8.299
Amax (ialm (lung)): 0.7254
Amax (igr37 (skin)): -22.1572
Amax (igr39 (skin)): 0.9211
Amax (igrov1 (ovary)): -1.9772
Amax (im95 (stomach)): -0.7889
Amax (imr32 (autonomic_ganglia)): -55.0108
Amax (ipc298 (skin)): -16.0715
Amax (ishikawaheraklio02er (endometrium)): 0.9691
Amax (istmes1 (pleura)): -35.2757
Amax (istmes2 (pleura)): -42.1214
Amax (j82 (urinary_tract)): -0.8954
Amax (jhh2 (liver)): -16.2272
Amax (jhh4 (liver)): -26.3135
Amax (jhh5 (liver)): -74.5916
Amax (jhh6 (liver)): 4.949
Amax (jhh7 (liver)): -42.8596
Amax (jhos2 (ovary)): 12.8505
Amax (jhos4 (ovary)): 4.354
Amax (jhuem2 (endometrium)): -27.6126

From paper PMC6219668 (Oncotarget, 2018)
